Assay: Insulin Tolerance Test (ITT)
Type: in vivo, mouse
Conditions: for Area Under the Curve (AUC) in ITT: vs control
Procedure: Animals. All animal procedures were approved by Institutional Animal Care and Use Committee (IACUC) at the University of California San Francisco and were conducted in accordance with the National Institutes of Health Guide for the Care and Use of laboratory Animals. C57BL/6NHsd (Envigo RMS, LLC) male littermates at 8-10 weeks of age, weighing ˜20-28 grams, were used in all the studies described. The mice were housed in a room that was temperature (22-25 C) and light controlled (12-h: 12-h light/dark cycle starting at 7 AM. The mice were fed with chow diet with 9% fat (PicoLab mouse Diet 20 (#5058), Lab Supply, Fortworth Texas, USA) for the duration of housing at the UCSF animal care facility.
1. mAb administered as a single dose, 15 hours prior to GTT and 21 hours prior to ITT. 2. mAb administered as a double dose, 15 hours prior to GTT and 21 hours prior to ITT plus a second mAb dose 2 hours prior to GTT and ITT. 3. mAb as a single dose 6 hours prior to GTT and ITT. 4. mAb single dose 2 hours prior to GTT and ITT.
Extendin 9-39 Peptide (MedChemExpress, Cat. No.: HY-P0264) were dosed at 1.0 or 0.23 mg/kg at three different administration regimen groups. 1. Extendin administered as a single dose, 21 hours prior to ITT. 2. Extendin administered as a double dose, 21 hours prior to ITT plus a second Extendin dose 2 hours prior to ITT. 3. mAb as a single dose 6 hours prior to ITT.
An Insulin Tolerance Test (ITT) was conducted to assess two different anti-GLP1 mAbs (agonist and antagonist) effect on insulin sensitivity following acute insulin administration. 8 or 10-week old male mice were fasted for 6 hours and body weight was recorded before and after fasting. To avoid circadian variations in mouse blood glucose levels this testing was performed at fixed times. Blood samples were collected by tail nick and baseline glucose was measured prior to insulin injection. Mice were injected, i.p., with a single bolus (0.75 U/Kg body weight) of human insulin (Novolin, Novo Nordisk) and blood glucose levels were measured at 15, 30, 45, 60 and 120 minutes after insulin injection. Blood glucose levels were monitored using a OneTouch Ultra 2 glucose monitor (LifeScan, Inc.).

Exendin 9-39 [reference compound]
Area Under the Curve (AUC) in ITT (19+2 hour, Exendin 0.23 mg/kg): no significant difference
Area Under the Curve (AUC) in ITT (19+2 hour, GLP1R-3 20 mg/kg, Exendin 1 mg/kg): significant (p<0.0001)
blood glucose after insulin challenge (19+2 hours dosing regimen, C57BL/6NHsd mice): significantly stabilizes a higher blood glucose
Area Under the Curve (AUC) in ITT (single 6 hour treatment, GLP1R-3 20 mg/kg, Exendin 1.0 and 0.23 mg/kg): no significant difference
